Laboratory results reported in US20040198973A1, “Process for preparation of carbapenem antibiotics” (priority 2001, published 2004).

Key:
Pseudomonas aeruginosa = details: Document 1: Drug of the Future, 1996, 21(4): 361-365; cited from earlier work
[1] = Solubility of starting compound 1 in organic solvents; type: physicochemical
From the text: The process described in Document 3 (Kohichi Hirai, Hiroshi Maruyama, Journal of Synthetic Organic Chemistry, Japan, 57, 383 (1999)) is the one for implementing such a procedure wherein a side chain part including amine is first condensed with parent derived from azetidinone, then, an active ester is introduced into the condensate, and thereafter, the resulting product is subjected to ring-closing reaction to form a lactam ring. However, a compound into which an active ester has been already introduced, p-nitrobenzyl(1R,5S,6S)-2-diphenoxyphosphoryloxy-6-[(R)-1-hydroxyethyl]-1-methyl-1-carbapen-2-em-3-carboxylate (starting compound 1) is industrially available recently at an affordable price as a starting material for parent of carbapenem, so that the starting material has been replaced by the above-described compound. However, solubility of the starting compound 1 is high in a high boiling point solvent such as dimethylformamide and dimethylsulfoxide, while it is low in a solvent having a low boiling point such as tetrahydrofuran and acetonitrile, as well as in aromatic solvents such as toluene (see the following Table 1). Under the circumstances, when a high boiling point solvent is used, a difficulty in industrial level arises in case of removing the high boiling point solvent as described later in detail. For this reason, there are many cases wherein the above-described starting compound 1 cannot be applied to the process of Document 3.

Compound: C[C@@H](O)[C@H]1C(=O)N2C(C(=O)O)=C(S[C@@H]3CN[C@H]([C@H](O)[C@@H]4CCNC4)C3)[C@H](C)[C@H]12
- antimicrobial action (Pseudomonas aeruginosa): excellent antimicrobial action

Compound: C[C@@H](O)[C@H]1C(=O)N2C(C(=O)OCc3ccc([N+](=O)[O-])cc3)=C(OP(=O)(Oc3ccccc3)Oc3ccccc3)[C@H](C)[C@@H]12 [p-nitrobenzyl(1R,5S,6S)-2-diphenoxyphosphoryloxy-6-[(R)-1-hydroxyethyl]-1-methyl-1-carbapen-2-em-3-carboxylate]
- Solubility ([1]; Acetonitrile, at 20° C., solvent volume per 0.1 g): 0.6 ML/0.1 g
- Solubility ([1]; Dimethylformamide, at 20° C., solvent volume per 0.1 g): <0.1 ML/0.1 g
- Solubility ([1]; Methylsulfoxide, at 20° C., solvent volume per 0.1 g): <0.1 ML/0.1 g
- Solubility ([1]; Tetrahydrofuran, at 20° C., solvent volume per 0.1 g): 0.6 ML/0.1 g
- Solubility ([1]; Toluene, at 20° C., solvent volume per 0.1 g): >10 ML/0.1 g
- Solubility ([1]; in a high boiling point solvent such as dimethylformamide and dimethylsulfoxide): high
- Solubility ([1]; in a low boiling point solvent such as tetrahydrofuran and acetonitrile, and aromatic solvents such as toluene): low
